Results on 16 molecules are retold here after patent US12600731B2, “Isoxazolo[5,4-H]quinazoline compounds as protein kinase inhibitors” (CHENGDU CYNOGEN BIO-PHARMACEUTICAL TECHNOLOGY CO., LTD., priority 2019, dated 2026).

What all share (type): biochemical
One assay concerns the target CDK6/Cyclin D3 (Homo sapiens, UniProt Q00534). Put plainly: Kinase activity assay, CDK6/Cyclin D3 (tested in a similar manner). The following applies: tested in a similar manner to CDK4/cyclin D3. Here is the method:
(§1) The inhibitory effect of compounds against the kinase CDK4/cyclin D3 was detected by Caliper Mobility Shift Assay method. The final concentration of the compounds to be tested was set at 10 concentrations starting from 1 μM by 3-fold serial dilution. 5 μL of compounds at 5-fold final concentration and 10 μL of CDK4/cyclin D3 kinase solution at a final concentration of 10 nM was added to a 384-well reaction plate, respectively. The plate was pre-incubated for 10 min at room temperature (with negative control wells containing 10 μL of kinase buffer and 5 μL of 5% DMSO; positive control wells containing 10 μL of kinase solution and 5 μL of 5% DMSO). The reaction was initiated by adding 10 μL of ATP at a final concentration of 250 μM and the corresponding substrate peptide mixture at room temperature for 150 minutes. 30 μL of stop detection solution containing EDTA was added to stop the kinase reaction. Caliper EZ Reader was used to read the conversion rate. Inhibition rate %=(average conversion rate of positive control %−conversion rate of sample %)/(average conversion rate of positive control %−average conversion rate of negative control %). wherein: negative control wells represent the conversion rate readings of wells without enzymatic activity; positive control wells represent conversion readings for wells with no compound inhibition. The log(inhibitor) vs. response—Variable slope of the analysis software GraphPad Prism 5 was used with log concentration value as the X-axis and the percent inhibition rate as the Y-axis to fit the dose-response curve, the IC50 value of each compound on the enzyme activity was thus obtained. Calculation formula: Y=Bottom+(Top−Bottom)/(1+10^((Log IC50−X)*HillSlope)).
(§2) The IC50 values for CDK6/Cyclin D3 and CDK2/Cyclin A2 of compounds of the present disclosure were tested in a similar manner.

In the next assay the target is CDK2/Cyclin A2 (Homo sapiens, UniProt P24941). Description: Kinase activity assay, CDK2/Cyclin A2 (tested in a similar manner). The following applies: tested in a similar manner to CDK4/cyclin D3. Here is the method: as §1, §2
The target in a further assay is CDK4/cyclin D3 (Homo sapiens, UniProt P11802). Description: Kinase activity assay, Caliper Mobility Shift Assay, CDK4/cyclin D3. The following applies: 10 nM kinase, ATP 250 μM, 150 minutes at room temperature. Here is the method:
as §1

Sequence of CDK4/cyclin D3 (P11802 whole entry, species assumed): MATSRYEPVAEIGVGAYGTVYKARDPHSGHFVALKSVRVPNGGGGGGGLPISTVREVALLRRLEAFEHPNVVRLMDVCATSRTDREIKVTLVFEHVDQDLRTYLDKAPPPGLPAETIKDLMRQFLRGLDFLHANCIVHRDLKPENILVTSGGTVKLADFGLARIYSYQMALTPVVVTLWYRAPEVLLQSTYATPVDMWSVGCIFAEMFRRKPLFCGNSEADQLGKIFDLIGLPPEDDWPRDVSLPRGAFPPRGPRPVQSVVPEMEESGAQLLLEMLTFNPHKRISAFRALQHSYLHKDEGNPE
Sequence of CDK4/cyclin D3 (P30281 whole entry partner, species assumed): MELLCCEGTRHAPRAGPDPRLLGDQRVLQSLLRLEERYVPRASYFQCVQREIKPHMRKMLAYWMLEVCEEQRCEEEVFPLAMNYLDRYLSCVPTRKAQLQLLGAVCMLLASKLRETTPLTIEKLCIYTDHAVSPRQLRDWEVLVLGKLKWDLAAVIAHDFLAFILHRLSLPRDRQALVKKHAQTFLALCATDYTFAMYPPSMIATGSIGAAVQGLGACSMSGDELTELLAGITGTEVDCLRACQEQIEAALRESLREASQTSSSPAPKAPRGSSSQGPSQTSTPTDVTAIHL
Sequence of CDK6/Cyclin D3 (Q00534 whole entry, species assumed): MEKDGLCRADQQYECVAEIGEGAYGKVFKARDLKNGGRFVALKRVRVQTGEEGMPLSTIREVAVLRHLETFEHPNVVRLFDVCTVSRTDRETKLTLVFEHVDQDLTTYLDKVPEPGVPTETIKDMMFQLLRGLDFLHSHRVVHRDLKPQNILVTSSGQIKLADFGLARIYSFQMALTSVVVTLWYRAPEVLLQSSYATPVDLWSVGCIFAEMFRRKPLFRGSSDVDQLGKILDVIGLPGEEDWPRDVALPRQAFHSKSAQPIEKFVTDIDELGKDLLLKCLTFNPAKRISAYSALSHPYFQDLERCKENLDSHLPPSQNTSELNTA
Sequence of CDK6/Cyclin D3 (P30281 whole entry partner, species assumed): as the sequence (P30281 whole entry partner, species assumed) above

On to `CC(C)c1noc2ccc3cnc(Nc4cccc(S(N)(=O)=O)c4)nc3c12` [Compound I-40, 3-((9-isopropylisoxazolo[5,4-h]quinazolin-2-yl)amino)benzenesulfonamide], for which the results for the IC50 on CDK6/Cyclin D3, on CDK2/Cyclin A2 and at CDK4/cyclin D3 were 6 nM, 10 nM and 2 nM, respectively.

`COc1ccc2cc(Nc3ncc4ccc5onc(C(C)C)c5c4n3)ccc2n1` [Compound I-37, 9-isopropyl-N-(2-methoxyquinolin-6-yl)isoxazolo[5,4-H]quinazolin-2-amine]: the half-maximal inhibitory concentration (IC50) was determined as 68 nM against CDK6/Cyclin D3, 82 nM at CDK2/Cyclin A2 and 34 nM on CDK4/cyclin D3.

In the case of `CCN1CCN(c2ccc(Nc3ncc4ccc5onc(C(C)C)c5c4n3)cc2)CC1` [Compound I-28, N-(4-(4-ethylpiperazin-1-yl)phenyl)-9-isopropylisoxazolo[5,4-h] quinazolin-2-amine], the IC50 is 5 nM against CDK6/Cyclin D3, 4 nM at CDK2/Cyclin A2 and 2 nM at CDK4/cyclin D3.

Turning to `CC(C)c1noc2ccc3cnc(Nc4ccc(N(CCN5CCOCC5)S(C)(=O)=O)cc4)nc3c12` [Compound I-41, N-(4-((9-isopropylisoxazolo[5,4-H]quinazolin-2-yl)amino)phenyl)-N-(2-morpholinoethyl) methanesulfonamide], the results for the IC50 against CDK6/Cyclin D3, against CDK2/Cyclin A2 and at CDK4/cyclin D3 were 7 nM, 12 nM and 2 nM, respectively.

Regarding `CC(C)c1noc2ccc3cnc(Nc4ccc(N5CCNCC5)cc4)nc3c12` [Compound I-27, 9-isopropyl-N-(4-(piperazin-1-yl)phenyl)isoxazolo[5,4-H]quinazolin-2-amine], the figures for the IC50 on CDK6/Cyclin D3, against CDK2/Cyclin A2 and at CDK4/cyclin D3 were 8 nM, 6 nM and 3 nM, respectively.

Take `CC(C)c1noc2ccc3cnc(Nc4ccc(C(=O)N5CCN(C)CC5)cc4)nc3c12` [Compound I-43, (4-((9-isopropylisoxazolo[5,4-H]quinazolin-2-yl)amino)phenyl) (4-methylpiperazin-1-yl)methanone]: the IC50 at CDK6/Cyclin D3 is 5 nM; against CDK2/Cyclin A2, 4 nM; on CDK4/cyclin D3, 1 nM.

As for `CC(C)c1noc2ccc3cnc(Nc4ccc(C(=O)N5CCNCC5)cc4)nc3c12` [Compound I-42, (4-((9-isopropylisoxazolo[5,4-H]quinazolin-2-yl)amino)phenyl) (piperazin-1-yl)methanone], the IC50 is 9 nM against CDK6/Cyclin D3, 5 nM against CDK2/Cyclin A2 and 3 nM on CDK4/cyclin D3.

As to `CC(C)c1noc2c1-c1nc(Nc3ccc(N4CCNCC4)c(F)c3)ncc1CC2` [Compound I-38, N-(3-fluoro-4-(piperazin-1-yl)phenyl)-9-isopropyl-5,6-dihydroisoxazolo[5,4-H] quinazolin-2-amine], the 50% inhibitory concentration (IC50) at CDK6/Cyclin D3 turned out to be 21 nM; against CDK2/Cyclin A2, 10 nM; on CDK4/cyclin D3, 7 nM.

As for `CC(C)c1noc2ccc3cnc(Nc4ccc(OCCN(C)C)cc4)nc3c12` [Compound I-44, N-(4-(2-(dimethylamino)ethoxy)phenyl)-9-isopropylisoxazolo[5,4-h]quinazolin-2-amine], the 50% inhibitory concentration (IC50) against CDK6/Cyclin D3 turned out to be 4 nM; on CDK2/Cyclin A2, 10 nM; on CDK4/cyclin D3, 2 nM.

As to `COc1cc(N2CCN(C)CC2)ccc1Nc1ncc2ccc3onc(C(C)C)c3c2n1` [Compound I-31, 9-isopropyl-N-(2-methoxy-4-(4-methylpiperazin-l-yl)phenyl)isoxazolo [5,4-H]quinazolin-2-amine], the IC50 against CDK6/Cyclin D3 was found to be 340 nM; against CDK2/Cyclin A2 it was 244 nM; at CDK4/cyclin D3, 98 nM.

On to `CC(C)c1noc2ccc3cnc(Nc4ccc(N5CCOCC5)c(F)c4)nc3c12` [Compound I-36, N-(3-fluoro-4-morpholinophenyl)-9-isopropylisoxazolo[5,4-H] quinazolin-2-amine], for which the IC50 against CDK6/Cyclin D3 amounted to 34 nM; against CDK2/Cyclin A2 it was 22 nM; on CDK4/cyclin D3, 20 nM.

In the case of `CC(C)c1noc2c1-c1nc(Nc3ccc(N4CCN(C)CC4)c(F)c3)ncc1CC2` [Compound I-39, N-(3-fluoro-4-(4-methylpiperazin-1-yl)phenyl)-9-isopropyl-5,6-dihydroisoxazolo[5,4-H]quinazolin-2-amine], the IC50 against CDK6/Cyclin D3 was determined as 17 nM; at CDK2/Cyclin A2, 11 nM; on CDK4/cyclin D3, 6 nM.

Turning to `CCN1CCN(c2ccc(Nc3ncc4ccc5onc(C(C)C)c5c4n3)cc2F)CC1` [Compound I-35, N-(4-(4-ethylpiperazin-1-yl)-3-fluorophenyl)-9-isopropylisoxazolo[5,4-H]quinazolin-2-amine], the IC50 against CDK6/Cyclin D3 stood at 8 nM; at CDK2/Cyclin A2, 10 nM; on CDK4/cyclin D3 it was 3 nM.

For `CC(C)c1noc2ccc3cnc(Nc4ccc(N5CCC(CCCO)CC5)cc4)nc3c12` [Compound I-30, 3-(1-(4-((9-isopropylisoxazolo[5,4-h]quinazolin-2-yl)amino)phenyl)piperidin-4-yl)propan-1-ol], the values for the IC50 against CDK6/Cyclin D3, on CDK2/Cyclin A2 and on CDK4/cyclin D3 were 245 nM, 140 nM and 100 nM, respectively.

For the molecule `CC(C)c1noc2ccc3cnc(Nc4ccc(N5CCOCC5)cc4)nc3c12` [Compound I-29, 9-isopropyl-N-(4-morpholinophenyl) isoxazolo[5,4-H]quinazolin-2-amine], the IC50 was determined as 36 nM on CDK6/Cyclin D3, 10 nM at CDK2/Cyclin A2 and 14 nM at CDK4/cyclin D3.

In the case of `CC(C)c1noc2ccc3cnc(Nc4ccc(N5CCOCC5)cc4F)nc3c12` [Compound I-32, N-(2-fluoro-4-morpholinophenyl)-9-isopropylisoxazolo[5,4-h] quinazolin-2-amine], the values for the 50% inhibitory concentration (IC50) on CDK6/Cyclin D3, at CDK2/Cyclin A2 and on CDK4/cyclin D3 were 359 nM, 294 nM and 150 nM, respectively.
